Drawing on ChEMBL document CHEMBL1150976, “The selectivity of protein kinase inhibitors: a further update” (Biochem J, 2007), this text covers Activity for two molecules.

Experiment [1] concerns the target T1, Serine/threonine-protein kinase 3 (Homo sapiens) (UniProt Q13188).
T1 sequence (whole entry): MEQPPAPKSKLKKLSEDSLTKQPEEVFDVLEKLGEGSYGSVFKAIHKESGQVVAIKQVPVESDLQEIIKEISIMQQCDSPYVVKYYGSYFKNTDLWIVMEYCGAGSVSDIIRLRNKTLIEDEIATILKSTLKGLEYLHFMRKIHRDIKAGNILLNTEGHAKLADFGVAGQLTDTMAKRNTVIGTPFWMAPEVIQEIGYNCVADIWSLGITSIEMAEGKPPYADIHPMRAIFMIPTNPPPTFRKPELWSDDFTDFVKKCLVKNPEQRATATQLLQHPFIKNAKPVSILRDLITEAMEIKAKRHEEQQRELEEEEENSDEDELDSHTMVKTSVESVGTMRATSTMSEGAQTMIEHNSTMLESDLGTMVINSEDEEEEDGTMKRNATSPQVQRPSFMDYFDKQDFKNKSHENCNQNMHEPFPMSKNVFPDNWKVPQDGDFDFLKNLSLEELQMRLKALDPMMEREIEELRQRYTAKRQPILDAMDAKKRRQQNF
In words: Percentage MST2 activity remaining in the presence of 3uM inhibitor.

In experiment [2] the target is T2, MAP kinase-activated protein kinase 5 (Homo sapiens) (UniProt Q8IW41).
T2 sequence (whole entry): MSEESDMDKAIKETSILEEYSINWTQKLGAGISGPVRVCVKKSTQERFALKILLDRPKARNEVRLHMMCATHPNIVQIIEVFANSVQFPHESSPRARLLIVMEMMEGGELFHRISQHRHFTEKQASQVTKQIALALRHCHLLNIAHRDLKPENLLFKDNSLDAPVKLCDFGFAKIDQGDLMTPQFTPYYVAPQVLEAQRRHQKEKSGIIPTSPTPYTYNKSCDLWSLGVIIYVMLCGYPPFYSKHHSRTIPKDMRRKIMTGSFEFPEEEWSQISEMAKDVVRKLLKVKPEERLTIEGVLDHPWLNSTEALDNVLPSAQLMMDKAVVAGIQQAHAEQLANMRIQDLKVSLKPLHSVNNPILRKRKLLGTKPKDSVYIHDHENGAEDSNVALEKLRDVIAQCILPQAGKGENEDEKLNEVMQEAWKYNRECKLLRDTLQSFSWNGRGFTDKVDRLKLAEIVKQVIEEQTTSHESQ
In words: Percentage PRAK activity remaining in the presence of 3uM inhibitor.

Experiment [3] addresses Rho-associated protein kinase 2 (Homo sapiens) (UniProt O75116). In words: Percentage ROCK2 activity remaining in the presence of 3uM inhibitor.
Experiment [4] deals with T2, MAP kinase-activated protein kinase 5 (Homo sapiens). Description: Percentage PRAK activity remaining in the presence of 2uM inhibitor.
Experiment [5] concerns the target T3, Aurora kinase C (Homo sapiens) (UniProt Q9UQB9).
T3 sequence (whole entry): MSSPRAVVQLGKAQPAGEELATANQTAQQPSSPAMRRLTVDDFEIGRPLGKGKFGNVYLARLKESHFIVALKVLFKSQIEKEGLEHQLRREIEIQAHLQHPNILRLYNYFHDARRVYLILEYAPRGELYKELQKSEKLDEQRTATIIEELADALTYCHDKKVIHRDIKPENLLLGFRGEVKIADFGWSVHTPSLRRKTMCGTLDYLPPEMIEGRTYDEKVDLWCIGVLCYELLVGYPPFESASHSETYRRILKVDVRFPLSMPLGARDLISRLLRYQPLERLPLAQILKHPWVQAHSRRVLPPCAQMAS
In words: Percentage Aurora C activity remaining in the presence of 2uM inhibitor.

Experiment [6] addresses T4, Serine/threonine-protein kinase Chk1 (Homo sapiens) (UniProt O14757).
T4 sequence (whole entry): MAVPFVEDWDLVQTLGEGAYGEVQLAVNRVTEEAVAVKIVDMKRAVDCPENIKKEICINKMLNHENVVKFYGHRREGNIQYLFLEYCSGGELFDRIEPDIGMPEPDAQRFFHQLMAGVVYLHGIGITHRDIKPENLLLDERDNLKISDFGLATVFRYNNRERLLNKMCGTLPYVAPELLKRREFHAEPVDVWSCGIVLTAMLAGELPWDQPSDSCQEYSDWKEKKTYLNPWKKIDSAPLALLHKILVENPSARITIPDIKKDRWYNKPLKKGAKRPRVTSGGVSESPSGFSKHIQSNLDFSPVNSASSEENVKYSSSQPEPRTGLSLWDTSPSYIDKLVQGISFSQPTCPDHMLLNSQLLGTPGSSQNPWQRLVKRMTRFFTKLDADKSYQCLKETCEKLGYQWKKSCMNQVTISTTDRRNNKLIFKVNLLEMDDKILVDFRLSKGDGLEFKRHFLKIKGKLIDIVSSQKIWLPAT
In words: Percentage CHK1 activity remaining in the presence of 2uM inhibitor.

The target in experiment [7] is Homeodomain-interacting protein kinase 3 (Homo sapiens) (UniProt Q9H422). Description: Percentage HIPK3 activity remaining in the presence of 2uM inhibitor. The conditions noted are these: filed as antagonist.
Experiment [8] addresses Serine/threonine-protein kinase pim-3 (Homo sapiens, UniProt Q86V86). Description: Percentage PIM3 activity remaining in the presence of 2uM inhibitor. The conditions noted are these: filed as antagonist.
The target of experiment [9] is Myosin light chain kinase, smooth muscle (Homo sapiens, UniProt Q15746). Description: Percentage SmMLCK activity remaining in the presence of 2uM inhibitor.
The target in experiment [10] is Mitogen-activated protein kinase 1 (Homo sapiens) (UniProt P28482). In words: Percentage ERK2 activity remaining in the presence of 2uM inhibitor.
For experiment [11], the target named is Ribosomal protein S6 kinase alpha-3 (Homo sapiens) (UniProt P51812). Description: Percentage RSK2 activity remaining in the presence of 2uM inhibitor.
Experiment [12] addresses Serine/threonine-protein kinase pim-1 (Homo sapiens, UniProt P11309). Description: Percentage PIM1 activity remaining in the presence of 2uM inhibitor.
Experiment [13] concerns the target T1, Serine/threonine-protein kinase 3 (Homo sapiens). In words: Percentage MST2 activity remaining in the presence of 2uM inhibitor. As to conditions: filed as antagonist.
The species named for the next experiment is Rattus norvegicus. Description: Percentage AMPK activity remaining in the presence of 2uM inhibitor.

Chain of Ribosomal protein S6 kinase alpha-3 (Homo sapiens) (P51812 whole entry): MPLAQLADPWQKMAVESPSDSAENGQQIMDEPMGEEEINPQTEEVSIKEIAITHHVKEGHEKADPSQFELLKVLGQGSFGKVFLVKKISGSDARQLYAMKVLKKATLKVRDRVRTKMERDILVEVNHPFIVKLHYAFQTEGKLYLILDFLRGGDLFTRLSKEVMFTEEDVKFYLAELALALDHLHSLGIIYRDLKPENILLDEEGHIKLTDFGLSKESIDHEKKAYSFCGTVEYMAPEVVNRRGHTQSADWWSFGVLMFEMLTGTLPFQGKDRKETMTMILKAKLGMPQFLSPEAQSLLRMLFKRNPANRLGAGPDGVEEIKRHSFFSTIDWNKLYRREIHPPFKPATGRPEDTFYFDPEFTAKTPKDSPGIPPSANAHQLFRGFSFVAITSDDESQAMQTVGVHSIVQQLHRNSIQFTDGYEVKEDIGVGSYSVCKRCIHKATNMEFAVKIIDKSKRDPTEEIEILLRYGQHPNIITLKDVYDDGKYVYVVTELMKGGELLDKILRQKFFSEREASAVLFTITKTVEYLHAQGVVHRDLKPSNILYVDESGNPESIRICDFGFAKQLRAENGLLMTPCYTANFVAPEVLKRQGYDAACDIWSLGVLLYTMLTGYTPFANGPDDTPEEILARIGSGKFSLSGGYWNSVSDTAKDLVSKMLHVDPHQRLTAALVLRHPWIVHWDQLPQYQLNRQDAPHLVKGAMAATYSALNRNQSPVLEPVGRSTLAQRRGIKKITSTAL
Chain of Homeodomain-interacting protein kinase 3 (Homo sapiens) (Q9H422 whole entry, looked up): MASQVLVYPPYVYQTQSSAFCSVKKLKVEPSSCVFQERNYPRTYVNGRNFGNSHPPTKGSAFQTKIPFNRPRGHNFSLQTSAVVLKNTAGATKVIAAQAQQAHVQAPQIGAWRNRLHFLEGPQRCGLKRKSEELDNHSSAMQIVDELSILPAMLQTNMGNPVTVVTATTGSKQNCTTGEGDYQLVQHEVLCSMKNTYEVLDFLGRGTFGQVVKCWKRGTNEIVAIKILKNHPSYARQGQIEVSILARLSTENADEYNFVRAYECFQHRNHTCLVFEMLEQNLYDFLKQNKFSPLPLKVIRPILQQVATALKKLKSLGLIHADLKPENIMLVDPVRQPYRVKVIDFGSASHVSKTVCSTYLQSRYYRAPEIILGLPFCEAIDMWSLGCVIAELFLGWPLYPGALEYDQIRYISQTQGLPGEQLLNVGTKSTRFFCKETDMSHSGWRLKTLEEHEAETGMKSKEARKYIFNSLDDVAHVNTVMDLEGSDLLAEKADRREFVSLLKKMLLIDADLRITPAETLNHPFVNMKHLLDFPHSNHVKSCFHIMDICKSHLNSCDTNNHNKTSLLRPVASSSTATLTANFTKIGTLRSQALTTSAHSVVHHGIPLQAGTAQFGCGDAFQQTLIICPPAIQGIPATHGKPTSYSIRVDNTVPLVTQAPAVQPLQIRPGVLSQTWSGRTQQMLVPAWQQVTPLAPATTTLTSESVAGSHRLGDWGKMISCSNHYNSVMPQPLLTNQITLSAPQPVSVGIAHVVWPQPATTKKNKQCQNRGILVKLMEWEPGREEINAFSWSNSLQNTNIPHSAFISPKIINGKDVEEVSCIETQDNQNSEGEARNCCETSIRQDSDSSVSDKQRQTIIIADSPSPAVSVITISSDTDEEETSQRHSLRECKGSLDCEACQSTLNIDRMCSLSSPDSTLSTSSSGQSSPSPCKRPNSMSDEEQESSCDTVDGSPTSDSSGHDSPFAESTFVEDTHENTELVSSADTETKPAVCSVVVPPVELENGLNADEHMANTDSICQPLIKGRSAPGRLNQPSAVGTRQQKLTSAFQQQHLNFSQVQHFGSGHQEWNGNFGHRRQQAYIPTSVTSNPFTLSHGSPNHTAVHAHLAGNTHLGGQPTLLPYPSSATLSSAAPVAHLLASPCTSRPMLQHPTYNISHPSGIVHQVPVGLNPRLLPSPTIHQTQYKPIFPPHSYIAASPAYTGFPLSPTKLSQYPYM
Chain of Myosin light chain kinase, smooth muscle (Q15746 whole entry): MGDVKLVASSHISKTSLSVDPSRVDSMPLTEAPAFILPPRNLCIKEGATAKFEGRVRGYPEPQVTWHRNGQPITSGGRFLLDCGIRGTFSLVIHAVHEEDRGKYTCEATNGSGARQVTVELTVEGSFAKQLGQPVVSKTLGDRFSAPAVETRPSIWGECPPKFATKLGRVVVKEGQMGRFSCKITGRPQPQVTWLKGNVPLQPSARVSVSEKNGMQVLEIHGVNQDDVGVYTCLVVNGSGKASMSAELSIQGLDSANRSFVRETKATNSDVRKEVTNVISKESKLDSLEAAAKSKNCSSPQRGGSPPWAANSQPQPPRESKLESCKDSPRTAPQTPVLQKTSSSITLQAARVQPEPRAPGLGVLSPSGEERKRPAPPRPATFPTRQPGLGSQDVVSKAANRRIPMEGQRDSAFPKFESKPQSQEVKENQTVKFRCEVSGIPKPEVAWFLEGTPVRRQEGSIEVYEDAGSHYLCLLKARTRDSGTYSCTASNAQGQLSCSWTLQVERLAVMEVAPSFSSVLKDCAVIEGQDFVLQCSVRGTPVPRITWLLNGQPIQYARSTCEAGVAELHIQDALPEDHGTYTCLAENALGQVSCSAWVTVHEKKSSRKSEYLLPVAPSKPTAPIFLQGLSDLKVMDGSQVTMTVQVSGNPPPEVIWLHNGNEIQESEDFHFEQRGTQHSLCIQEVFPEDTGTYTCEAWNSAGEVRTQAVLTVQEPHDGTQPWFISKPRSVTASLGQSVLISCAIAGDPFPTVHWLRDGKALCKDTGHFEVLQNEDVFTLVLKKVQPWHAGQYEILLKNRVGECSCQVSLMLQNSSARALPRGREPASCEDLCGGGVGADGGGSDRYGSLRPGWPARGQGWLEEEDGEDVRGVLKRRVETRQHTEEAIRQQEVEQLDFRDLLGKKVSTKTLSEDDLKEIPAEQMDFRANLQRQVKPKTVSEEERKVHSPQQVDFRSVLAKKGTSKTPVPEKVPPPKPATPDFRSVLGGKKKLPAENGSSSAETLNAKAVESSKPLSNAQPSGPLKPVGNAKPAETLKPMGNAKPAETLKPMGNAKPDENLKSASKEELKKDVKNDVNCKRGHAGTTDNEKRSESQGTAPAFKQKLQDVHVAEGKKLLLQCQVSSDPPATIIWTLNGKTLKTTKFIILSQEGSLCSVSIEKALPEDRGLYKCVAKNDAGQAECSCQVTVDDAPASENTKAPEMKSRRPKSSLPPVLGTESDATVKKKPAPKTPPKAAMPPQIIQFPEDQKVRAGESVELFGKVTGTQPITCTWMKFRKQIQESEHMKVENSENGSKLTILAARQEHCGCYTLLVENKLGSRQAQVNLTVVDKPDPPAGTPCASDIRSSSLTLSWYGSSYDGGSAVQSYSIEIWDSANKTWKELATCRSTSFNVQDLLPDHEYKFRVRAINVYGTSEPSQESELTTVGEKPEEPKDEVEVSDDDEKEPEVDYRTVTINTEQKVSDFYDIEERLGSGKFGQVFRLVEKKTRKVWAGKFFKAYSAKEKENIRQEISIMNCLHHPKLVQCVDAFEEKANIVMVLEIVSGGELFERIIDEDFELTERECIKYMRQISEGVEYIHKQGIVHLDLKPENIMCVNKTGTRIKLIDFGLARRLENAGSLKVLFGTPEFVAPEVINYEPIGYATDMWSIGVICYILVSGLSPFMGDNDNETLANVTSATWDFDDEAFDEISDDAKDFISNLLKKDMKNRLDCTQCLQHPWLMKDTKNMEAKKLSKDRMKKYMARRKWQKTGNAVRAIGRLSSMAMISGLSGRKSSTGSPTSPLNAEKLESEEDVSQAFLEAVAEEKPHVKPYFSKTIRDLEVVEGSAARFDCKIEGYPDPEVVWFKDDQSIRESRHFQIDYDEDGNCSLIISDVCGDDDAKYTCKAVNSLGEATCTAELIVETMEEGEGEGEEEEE
Chain of Serine/threonine-protein kinase pim-1 (P11309 whole entry, looked up): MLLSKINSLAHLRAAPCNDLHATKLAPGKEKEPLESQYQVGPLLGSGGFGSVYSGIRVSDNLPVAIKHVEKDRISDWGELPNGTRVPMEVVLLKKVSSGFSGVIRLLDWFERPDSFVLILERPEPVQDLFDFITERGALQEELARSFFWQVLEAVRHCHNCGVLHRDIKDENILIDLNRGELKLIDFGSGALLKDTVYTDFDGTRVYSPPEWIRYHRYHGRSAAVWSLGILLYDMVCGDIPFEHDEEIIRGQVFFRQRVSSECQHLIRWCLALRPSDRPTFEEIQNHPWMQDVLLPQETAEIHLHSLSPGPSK
Chain of Mitogen-activated protein kinase 1 (Homo sapiens) (P28482 whole entry): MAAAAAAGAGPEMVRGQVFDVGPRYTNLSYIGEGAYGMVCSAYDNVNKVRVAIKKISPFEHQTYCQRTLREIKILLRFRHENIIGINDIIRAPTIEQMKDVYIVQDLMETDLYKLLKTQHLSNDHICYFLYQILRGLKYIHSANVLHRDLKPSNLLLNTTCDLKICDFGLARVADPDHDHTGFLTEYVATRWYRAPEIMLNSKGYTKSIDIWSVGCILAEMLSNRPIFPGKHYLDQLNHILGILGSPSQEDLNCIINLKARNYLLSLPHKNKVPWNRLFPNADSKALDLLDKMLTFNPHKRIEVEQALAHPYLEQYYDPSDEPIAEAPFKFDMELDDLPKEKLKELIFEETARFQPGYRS

Take `Cc1ccc(-c2c(C(=O)CF)n(CCCO)c3ncnc(N)c23)cc1`: the values for the Activity in [1], in experiment [2] and in experiment [3] were 76%, 97% and 86%, respectively.

For the molecule `Cn1cc(C2=C(c3ccc(Cl)cc3Cl)C(=O)NC2=O)c2ccccc21`, the Activity is 90% in experiment [4]; 79% in experiment [5]; 87% in [6]; 41% in experiment [7]; 29% in experiment [8]; 60% in experiment [9]. The Activity was 97% in [10]; 67% in experiment [11]; 56% in experiment [12]; 50% in experiment [13]; 67% in the experiment listed under Rattus norvegicus.
